Data: patent US8940340B2, “Systems and methods for maintaining the dominance of Nannochloropsis in an algae cultivation system” (Aurora Algae, Inc., priority 2009, dated 2015)

Columns and labels:
Nannochloropsis [1] = experiment: hypochlorite kill curve: dry biomass productivity of laboratory Nannochloropsis cultures; type: cell-based; conditions: for Mean Productivity of Nannochloropsis: daily addition
Procedure: Algal cultivation: 800 ml cultures are maintained in one inch thick Roux flasks with continuous magnetic stirring. Continuous illumination at 700 MicroEinsteins per meter squared per second is provided by four 54-watt T5 fluorescent bulbs rated with a correlated color temperature of […]. 1% CO2 is bubbled through […] rate sufficient to maintain a pH between 7.0 and 8.5. Photoautotrophic growth is maintained on UFM media formulated with artificial seawater (35 g/L Instant Ocean) containing 720 mg/L urea, 168 mg/L K2HPO4, 1.5 ml/L of a metals solution and 1 ml/L of a vitamin solution. The metals solution contains 39.7 g/L Fe(III)Cl3(6H2O), 30.0 g/L EDTA, 1.2 g/L MnCl2(4H2O), 0.08 g/L CoCl2(6H2O), 0.16 g/L ZnSO4(7H2O), 0.067 g/L CuSO4(5H2O), 0.023 g/L Na2MoO4(2H2O). The vitamins solution contains 0.001 g/L vitamin B12, 0.001 g/L Biotin, and 0.2 g/L Thiamine. Cultures are diluted by exchanging 400 ml of culture with fresh media every day at the same time. From the 400 ml that are removed, the dry biomass concentration is determined as below. Determination of culture biomass concentration: A sample of the culture between 0.5 and five milliliters is vacuum filtered through a pre-rinsed and pre-ashed Whatman GF/C glass microfiber filter disc. The cake is rinsed with twenty milliliters of 0.7M ammonium formate and dried for at least 2 hours at 105° C. The dried sample is weighed on an analytical balance and then ashed at 550° C. for at least 1 hour. The post ash weight is subtracted from the pre-ash weight and divided by the volume of the sample to get the ash-free dry biomass density in milligrams per milliliter. Given the dilution volume and the previous day's dry biomass concentration, the current day's dry biomass concentration can be used to establish the culture's dry biomass productivity in grams per liter per day. This productivity value can then be compared across different experimental conditions. For the hypochlorite kill curve, four cultures are measured for productivity as above, each of which receives a different dose of sodium hypochlorite with the fresh media that is added at dilution time. The final concentration of sodium hypochlorite following dilution for each of the four cultures is 0, 20, 40 and 80 milligrams per liter.

Nannochloropsis [2] = experiment: outdoor open pond cultivation with chlorine addition (condition four)
Procedure: Chlorine compounds may be added directly to the cultivation vessel. They may be added to the water of dilution of the cultivation vessel. In either case they may be added in solid (granular) form, liquid form, or as chlorine gas. In experiments performed by the inventors, the chlorine was added as a liquid (e.g., sodium hypochlorite). Typically, 10-12% solutions of sodium hypochlorite were diluted 10 to 100 fold and added directly to the cultivation reactor to achieve the initial concentration of sodium hypochlorite cited in each case.
(§1) In the following examples, Nannochloropsis was grown in outdoor, open, ponds in Vero Beach, Fla. The climate in Vero Beach is semitropical, with mild winters and hot, humid summers. It is a challenging climate for keeping outdoor algal cultures stable and productive. The overnight warmth encourages predation by protozoa, rotifers, and crustaceans. The humidity allows the airborne transport of competing algae, and thus increases the rate of invasion. In some of the examples the techniques applied were successful in keeping Nannochloropsis as the dominant alga, at ninety-five percent (95%) to nearly one-hundred percent (100%) of the algal biomass, even when competitors and/or predators were intentionally introduced to the algae cultivation system. In some cases, predators were undetectable most of the time, even after they were intentionally introduced.
Ten ponds (four 1.4 square meter, four 3 square meter, and two approximately 200 square meter) were used to test many conditions of salinity and chlorination over fifteen months. Not all of the conditions were run for that whole time period. The results from the following seven conditions are summarized below: 1) 35-36 PPT (full) seawater salinity, 2) 28-30 PPT (dilution of full seawater with fresh water in a ratio of 3:1), 3) 22-24 PPT (dilution of full seawater with fresh water in a ratio of about 2:1), 4) condition no. 3 with chlorine added to the pond every other day to an initial concentration of sodium hypochlorite of 3 ppm, 5) 10-12 PPT (dilution of full seawater with fresh water in a ratio of about 1:2), 6) 5-7 PPT (dilution of full seawater with fresh water in a ratio of about 1:6. and 7) about 1 PPT (dilution of seawater with fresh water in a ratio of about 1:40).
Condition four was run from Oct. 4, 2007 until Jun. […] Commercial chlorine solutions were added to the algae cultivation systems every other day to obtain an initial concentration of 2.5-3 mg of sodium hypochlorite. […] The Nannochloropsis was cultivated without interruption and at greater than 95% dominance, throughout the entire cultivation period (over eight months). […] Species added included Tetraselmis and Dunaliella, along with amoeba, protozoa, and crustaceans. The Tetraselmis and Dunaliella cultures were decimated by the predators. The predators were not observable in the Nannochloropsis cultures after a few days.

[3] = tested on: predators (amoeba, protozoa, and crustaceans); experiment: outdoor open pond cultivation with chlorine addition: growth of introduced predators; conditions: 2.5-3 mg every other day, 22-24 PPT
Procedure: as §1
Ten ponds (four 1.4 square meter, four 3 square meter, and two approximately 200 square meter) were used to test many conditions of salinity and chlorination over fifteen months. Not all of the conditions were run for that whole time period. The results from the following seven conditions are summarized below: 1) 35-36 PPT (full) seawater salinity, 2) 28-30 PPT (dilution of full seawater with fresh water in a ratio of 3:1), 3) 22-24 PPT (dilution of full seawater with fresh water in a ratio of about 2:1), 4) condition no. […]

## OCl [sodium hypochlorite]
Nannochloropsis [1]; above 80 milligrams/liter, exposure not prolonged
  survival of Nannochloropsis cultures after extremely high exposure: recover
Nannochloropsis [1]; at least 80 milligrams/liter
  productivity of Nannochloropsis in the first two days following administration: zero productivity
Nannochloropsis [1]; shock amount, initial concentration 40-80 milligrams/liter or higher
  time for Nannochloropsis to recover after shock injection: two to three
Nannochloropsis [1]; sodium hypochlorite 20 Milligrams/Liter
  Mean Productivity of Nannochloropsis: 570 Milligrams/Liter/Day
Nannochloropsis [1]; sodium hypochlorite 40 Milligrams/Liter
  Mean Productivity of Nannochloropsis: 460 Milligrams/Liter/Day
Nannochloropsis [1]; sodium hypochlorite 80 Milligrams/Liter
  Mean Productivity of Nannochloropsis: 0 Milligrams/Liter/Day
Nannochloropsis [2]; 2.5-3 mg every other day, 22-24 PPT, over eight months
  Nannochloropsis dominance throughout the cultivation period: greater than 95%
Nannochloropsis [2]; 22-24 PPT, cooler months
  contamination versus non-chlorinated cultures at the same salinity: no observable difference
Nannochloropsis [2]; 22-24 PPT, warmer months of the year
  contamination versus non-chlorinated cultures at the same salinity: less contamination than non-chlorinated cultures
Nannochloropsis [2]; condition four, about 250 days
  culture stability over the run: without stability problems
Nannochloropsis [2]; initial concentration 2.5-3 mg every other day, salinity 22-24 PPT
  effect on productivity compared to condition three with no added chlorine: often had no effect on productivity
[3]
  growth of predators added to the chlorinated cultures: No predators were able to grow
